In patent US3932619A, “Metabolite A-27106 and processes for its preparation and use” (Eli Lilly and Company, priority 1974, dated 1976):
Where a name gives a salt, the structure may show the parent alone.

Columns and labels:
mice = assay: Acute intraperitoneal toxicity in groups of six mice; format: in vivo; conditions: for mice died: six mice
Method: In tests when metabolite A-27106 sodium salt was administered intraperitoneally to groups of six mice each:
In similar tests, when monensin sodium salt was administered intraperitoneally to groups of six mice each: […]

Eimeria tenella = assay: Control of coccidiosis in chicks inoculated with Eimeria tenella, drug in feed; format: in vivo; conditions: for Avg. Wt. Gain/Bird: 7 days after inoculation; for Lesion Scores: number of birds at score 0 / Lesion Scores: number of birds at score 1 / Lesion Scores: number of birds at score 2 / Lesion Scores: number of birds at score 3 / Lesion Scores: number of birds at score 4: of 15 birds
Method: A group of 75 one-week-old, healthy, incubator and battery-reared, cross-bred male chicks, of a heavy broiler type was used. The birds were divided into five groups of 15 birds having three replicates of five-bird subgroups each. Each subgroup was reared out of contact with the other subgroups. A first group was held as an untreated healthy control under favorable conditions. A second group was treated as the first group, but was inoculated with coccidiosis by oral administration of a dose containing 10^5 sporulated oocysts of Eimeria tenella. The third, fourth and fifth groups were treated as the second group except that, 24 hours before the said inoculation, their feed was modified by addition of metabolite A-27106 sodium salt in concentrations of 100, 150, and 200 parts per million (ppm), respectively.
Seven days after inoculation, the birds were weighed, sacrificed and examined for evidence of coccidial lesions. Coccidial involvement was expressed on an arbitrary scale of zero to four. Lesion scores indicate the number of birds at each level. Zero indicates no evidence of coccidiosis. One designates the least coccidial involvement that can be seen. Two indicates moderate involvement with little or no hemorrhage and no severe tissue damage. Three indicates hemorrhage, swelling of the caeca, and extensive tissue involvement. Four indicates hemorrhage, a caecal core of clotted blood and debrided epithelial cells. Birds scoring […] or less usually recover if not further infected with coccidia.

rumen fluid = assay: Volatile fatty acid production in incubated diluted rumen fluid; design: species or system steer; conditions: 16 hours, 38°C.
Description: Rumen fluid is obtained from a steer with a surgically-installed fistula opening into the rumen. The steer is maintained on a high-grain ration, the composition of which follows:
A sample of rumen fluid is strained through four layers of cheesecloth, and the filtrate is collected. The particulate matter retained by the cheesecloth is resuspended in enough physiological buffer to return it to the original volume of the rumen fluid, and this suspension is strained again. The buffer used has the following composition:
The two filtrates are combined and allowed to stand until particulate matter separates to the top. The clear layer is separated, diluted with the same buffer (1:1) and then adjusted to pH 7.0.
The diluted rumen fluid (10 ml.) is placed in a 25-ml. flask with 40 mg. of the above-described feed, an additional 5 mg. of soybean protein, and the compound to be tested. Four replicate flasks are used per treatment. Two sets of four control flasks each are also employed. A zero-time control and an incubated 16-hour control are used. All test flasks are incubated for 16 hours at 38°C. After incubation the pH is measured, and 25 percent metaphosphoric acid (2 ml.) is added to each flask. The samples are allowed to settle, and the supernatant is analyzed by gas chromatography for propionate, acetate, and butyrate compounds.
Test-compound results are statistically compared with the control results.

[1] = Solubility in organic solvents; format: physicochemical
birds = assay: Other studies: palatability and toxicity in birds; format: in vivo
coccidiosis = assay: Other studies with A-27106 sodium salt alone and combined with monensin in the diet; format: in vivo, birds
Method: Numerous other studies were carried out with metabolite A-27106 sodium salt, both alone and in combination with monensin.

[2] = Electrometric titration (pKa); format: physicochemical; conditions: pH 8; electrometric titration in water, initial pH of 8
Description: The acid form of metabolite A-27106 is a white amorphous solid, having a molecular weight of about 832.

[3] = medicated birds with high lesion scores
[4] = 0.2 mcg./ml. diluted rumen fluid

Q: With `CCC1(C2OC(C3OC(O)(COC4OC(CO)C(O)C(O)C4O)C(C)CC3C)CC2C)CCC(C2(C)CCC3(CC(O)C(C)C(C(C)C(OC)C(C)C(=O)O)O3)O2)O1` (stereo not drawn) [metabolite A-27106 sodium salt] as the molecule, how does the mice died (mice; 50 mg./kg.) read?
A: Its mice died is “one out of six died”.

Q: And the mice died (mice; 100 mg./kg.)?
A: Its mice died is “three out of six died”.

Q: And the “Avg. Wt. Gain/Bird” value (Eimeria tenella; 100 ppm in the diet)?
A: Its value is 157 Grams.

Q: What about the “Lesion Scores: number of birds at score 0” value (“Lesion Scores … at score 0” for short) (Eimeria tenella; 100 ppm in the diet) of the same molecule?
A: Its value is 4.

Q: And the “Lesion Scores: number of birds at score 1” value (“Lesion Scores … at score 1” for short) (Eimeria tenella; 100 ppm in the diet)?
A: Its value is 1.

Q: And the “Lesion Scores: number of birds at score 2” value (“Lesion Scores … at score 2” for short) (Eimeria tenella; 100 ppm in the diet)?
A: The value was 0.

Q: And the “Lesion Scores: number of birds at score 3” value (“Lesion Scores … at score 3” for short) (Eimeria tenella; 100 ppm in the diet)?
A: The value was 3.

Q: And the “Lesion Scores: number of birds at score 4” value (“Lesion Scores … at score 4” for short) (Eimeria tenella; 100 ppm in the diet)?
A: Its value is 7.

Q: And the “Avg. Wt. Gain/Bird” value (Eimeria tenella; 150 ppm in the diet)?
A: The value was 150 Grams.

Q: What about the “Lesion Scores … at score 0” value (Eimeria tenella; 150 ppm in the diet) of the same molecule?
A: Its value is 3.

Q: And the “Lesion Scores … at score 1” value (Eimeria tenella; 150 ppm in the diet)?
A: Its value is 3.

Q: And the “Lesion Scores … at score 2” value (Eimeria tenella; 150 ppm in the diet)?
A: Its value is 1.

Q: And the “Lesion Scores … at score 3” value (Eimeria tenella; 150 ppm in the diet)?
A: The value was 1.

Q: And the “Lesion Scores … at score 4” value (Eimeria tenella; 150 ppm in the diet)?
A: Its value is 7.

Q: And the “Avg. Wt. Gain/Bird” value (Eimeria tenella; 200 ppm in the diet)?
A: Its value is 166 Grams.

Q: And the “Lesion Scores … at score 0” value (Eimeria tenella; 200 ppm in the diet)?
A: Its value is 5.

Q: What about the “Lesion Scores … at score 1” value (Eimeria tenella; 200 ppm in the diet) of the same molecule?
A: The value was 0.

Q: And the “Lesion Scores … at score 2” value (Eimeria tenella; 200 ppm in the diet)?
A: The value was 0.

Q: What about the “Lesion Scores … at score 3” value (Eimeria tenella; 200 ppm in the diet) of the same molecule?
A: Its value is 0.

Q: What about the “Lesion Scores … at score 4” value (Eimeria tenella; 200 ppm in the diet) of the same molecule?
A: Its value is 10.

Q: And the condition of birds (Eimeria tenella; [3])?
A: Its condition of birds is “appeared to be in good condition”.

Q: What about the fecal blood (Eimeria tenella; [3]) of the same molecule?
A: Its fecal blood is “scanty or absent”.

Q: What about the “Butyrate, ratio of concentration in treated to control flasks” value (“Butyrate, ratio of concentration” for short) (rumen fluid; [4]) of the same molecule?
A: The value was 0.91.

Q: What about the “Propionate, ratio of concentration in treated to control flasks” value (shortened to “Propionate, ratio of concentration”) (rumen fluid; [4]) of the same molecule?
A: Its value is 1.02.

Q: What about the “Total VFA, ratio of concentration in treated to control flasks” value (from here on “Total VFA, ratio of concentration”) (rumen fluid; [4]) of the same molecule?
A: Its value is 1.07.

Q: What about the “Butyrate, ratio of concentration” value (rumen fluid; 1 mcg./ml. diluted rumen fluid) of the same molecule?
A: The value was 0.96.

Q: And the “Propionate, ratio of concentration” value (rumen fluid; 1 mcg./ml. diluted rumen fluid)?
A: The value was 1.42.

Q: What about the “Total VFA, ratio of concentration” value (rumen fluid; 1 mcg./ml. diluted rumen fluid) of the same molecule?
A: Its value is 0.98.

Q: And the “Butyrate, ratio of concentration” value (rumen fluid; 5 mcg./ml. diluted rumen fluid)?
A: Its value is 0.73.

Q: And the “Propionate, ratio of concentration” value (rumen fluid; 5 mcg./ml. diluted rumen fluid)?
A: The value was 2.15.

Q: And the “Total VFA, ratio of concentration” value (rumen fluid; 5 mcg./ml. diluted rumen fluid)?
A: The value was 1.03.

Q: And the solubility ([1]; highly polar solvents)?
A: Its solubility is “readily soluble”.

Q: What about the solubility ([1]; liquid lower alkanes) of the same molecule?
A: Its solubility is “relatively insoluble”.

Q: And the solubility ([1]; lower aliphatic alcohols)?
A: The solubility was “soluble”.

Q: And the solubility ([1]; nonpolar solvents)?
A: Its solubility is “insoluble”.

Q: And the solubility ([1]; phenol, diethyl ether and acetone)?
A: The solubility was “partially soluble”.

Q: What about the solubility ([1]; solvents of intermediate polarity) of the same molecule?
A: Its solubility is “varies in solubility”.

Q: What about the “toxicity compared with monensin” value (birds) of the same molecule?
A: Its value is “less toxic than was monensin”.

Q: And the weight gains (coccidiosis; 0.04 percent versus 0.01 percent in diet)?
A: Its weight gains is “no greater weight gains at 0.04 percent than at 0.01%”.

Q: And the toxicity (coccidiosis; higher rate (0.04 percent))?
A: The toxicity was “no evidence of toxicity”.

Q: And the caecal lesions (coccidiosis; higher rate (0.04 percent) versus 0.01 percent)?
A: Its caecal lesions is “fewer caecal lesions”.

Q: Which mice died (mice; 10 mg./kg.) does the source give for `CC[C@@]1([C@@H]2O[C@@H]([C@H]3O[C@@](O)(CO)[C@H](C)C[C@@H]3C)C[C@@H]2C)CC[C@H]([C@]2(C)CC[C@]3(C[C@H](O)[C@@H](C)[C@@H]([C@@H](C)[C@@H](OC)[C@H](C)C(=O)O)O3)O2)O1` [monensin sodium salt, reference compound] here?
A: The mice died was “one out of six died”.

Q: And the mice died (mice; 20 mg./kg.)?
A: The mice died was “three out of six died”.

Q: What does the source list for `CCC1(C2OC(C3OC(O)(COC4OC(CO)C(O)C(O)C4O)C(C)CC3C)CC2C)CCC(C2(C)CCC3(CC(O)C(C)C(C(C)C(OC)C(C)C(=O)O)O3)O2)O1` (stereo not drawn) [Metabolite A-27106]?
A: toxicity compared with monensin (mice; mice): less toxic than monensin; pKa [2]: 7.2
